Measurements published in US20190010167A1, “INHIBITORS OF THE MENIN-MLL INTERACTION” (Vitae Pharmaceuticals, Inc., priority 2015, published 2019).

Molecular target: T1, wild-type menin / MLL-AF9 fusion protein (Homo sapiens, UniProt O00255)
T1 construct: made in house; host or cells: E. coli (menin); HEK293 cleared lysate (MLL-AF9-FLAG)
T1 sequence (O00255 1-610): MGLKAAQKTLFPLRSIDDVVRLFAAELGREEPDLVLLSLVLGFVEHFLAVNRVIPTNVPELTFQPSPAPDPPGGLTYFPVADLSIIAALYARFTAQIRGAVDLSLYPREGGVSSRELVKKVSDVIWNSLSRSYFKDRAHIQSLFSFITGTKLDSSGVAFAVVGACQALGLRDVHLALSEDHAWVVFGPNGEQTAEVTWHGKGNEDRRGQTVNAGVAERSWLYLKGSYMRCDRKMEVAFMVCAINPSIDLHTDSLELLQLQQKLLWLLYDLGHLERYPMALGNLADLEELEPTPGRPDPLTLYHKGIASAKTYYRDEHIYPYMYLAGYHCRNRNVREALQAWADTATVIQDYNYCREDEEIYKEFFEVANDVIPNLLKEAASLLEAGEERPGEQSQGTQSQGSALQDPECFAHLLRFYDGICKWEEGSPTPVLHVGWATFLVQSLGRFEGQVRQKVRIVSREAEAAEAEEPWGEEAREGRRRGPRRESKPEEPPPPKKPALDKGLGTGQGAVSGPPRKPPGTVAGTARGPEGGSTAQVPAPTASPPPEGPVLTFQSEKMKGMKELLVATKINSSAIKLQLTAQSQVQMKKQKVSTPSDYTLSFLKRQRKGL
Assay: AlphaLISA menin/MLL binding assay, wild-type menin (Assay 1)
Details: biotinylated wild-type menin 5 nM, MLL-AF9-FLAG lysate
Method: Potencies of inhibitor compounds against menin/MLL binding were assessed by AlphaLISA assay using biotinylated (1) wild-type menin or (2) mutated menin (described in Nature (2012) Vol. 482, pp. 542-548) and MLL-AF9 fusion protein bearing a FLAG epitope at its C-terminus. Menin proteins were expressed in E. coli and covalently modified with biotin using EZ-Link™ Sulfo-NHS-Biotin (ThermoFisher Cat. No. 21217) according to manufacturer's protocol. MLL1-1,396 fused to AF91-92 and the C-terminal FLAG peptide was expressed in HEK293 cells and used as a lysate cleared at 21,000×g for 10 min.
Compounds (2 μL of solutions in DMSO) were dispensed in white 96-well half-area plates (Corning Cat. No. 3693) and incubated for 30 min at RT with 5 nM biotinylated menin and appropriate amount of MLL-AF9-FLAG lysate in 40 μL of 50 mM Tris-HCl buffer pH 7.4 containing 5% (v/v) DMSO, 50 mM NaCl, 0.01% (w/v) bovine serum albumin (BSA) and 1 mM DTT. To this incubation mixture, 40 μl of AlphaLISA anti-FLAG acceptor (PerkinElmer Cat. No. AL112C) and streptavidin donor (PerkinElmer Cat. No. 6760002) beads (10 μg/mL each) was added and incubation continued at RT for 60 min. Alpha (amplified luminescent proximity homogeneous assay) signal was measured on an Envision multi-label plate reader at the end of the incubation. All steps were conducted under dim fluorescent light.
These percent inhibition values were regressed against compound concentrations in the assay using four parameter logit non-linear curve fitting (XLFit, IDBS). The IC50 values were derived from the curve fitting as inflection points on the dose-response curves and are set out in Table 1 below.

## CS(=O)(=O)c1ccc(CC(=O)N2CC3(C2)CN(c2ncnc4sc(CC(F)(F)F)cc24)C3)cc1 [Example 62, 2-(4-(methylsulfonyl)phenyl)-1-(6-(6-(2,2,2-trifluoroethyl)thieno[2,3-d]pyrimidin-4-yl)-2,6-diazaspiro[3.3]heptan-2-yl)ethan-1-one]
  IC50: 100 to 1000 nM

## CS(=O)(=O)c1ccc(CN2CCC3(CCN(c4ncnc5sc(CC(F)(F)F)cc45)C3)C2)c(Cl)c1 (stereo not shown) [Example 36, 4-(7-(2-chloro-4-(methylsulfonyl)benzyl)-2,7-diazaspiro[4.4]nonan-2-yl)-6-(2,2,2-trifluoroethyl)thieno[2,3-d]pyrimidine]
  IC50: 100 to 1000 nM

## N#Cc1cccc(CN2CCC3(CCN(c4ncnc5sc(CC(F)(F)F)cc45)C3)C2)c1 (stereo not shown) [Example 35, 3-((7-(6-(2,2,2-Trifluoroethyl)thieno[2,3-d]pyrimidin-4-yl)-2,7-diazaspiro[4.4]nonan-2-yl)methyl)benzonitrile]
  IC50: 100 to 1000 nM

## Cc1c(CN2CC3(CCN(c4ncnc5sc(CC(F)(F)F)cc45)C3)C2)ccc2[nH]c(C#N)cc12 [Example 112, 4-methyl-5-((6-(6-(2,2,2-trifluoroethyl)thieno[2,3-d]pyrimidin-4-yl)-2,6-diazaspiro[3.4]octan-2-yl)methyl)-1H-indole-2-carbonitrile]
  IC50: 100 to 1000 nM

## CC(=O)N[C@H]1CC[C@H](CN2CCC3(CCN(c4ncnc5sc(CC(F)(F)F)cc45)C3)C2)CC1 (stereo partly shown) [Example 47, N-((1r,4r)-4-((7-(6-(2,2,2-trifluoroethyl)thieno[2,3-d]pyrimidin-4-yl)-2,7-diazaspiro[4.4]nonan-2-yl)methyl)cyclohexyl)acetamide]
  IC50: 100 to 1000 nM

## CC(C)CN1CC2(CCN(c3ncnc4sc(CC(F)(F)F)nc34)CC2)C1 [Example 81, 7-(2-isobutyl-2,7-diazaspiro[3.5]nonan-7-yl)-2-(2,2,2-trifluoroethyl) thiazolo[5,4-d]pyrimidine]
  IC50: ≥ 1000 nM

## FC(F)(F)Cc1cc2c(N3CCC4(CC3)CN(CC3CC(F)(F)C3)C4)ncnc2s1 [Example 14, 4-(2-((3,3-difluorocyclobutyl)methyl)-2,7-diazaspiro[3.5]nonan-7-yl)-6-(2,2,2-trifluoroethyl)thieno[2,3-d]pyrimidine]
  IC50: 100 to 1000 nM

## CCC(C)CN1CCC2(C1)CN(c1ncnc3sc(CC(F)(F)F)cc13)C2 (stereo not shown) [Example 94, 4-(6-(2-methylbutyl)-2,6-diazaspiro[3.4]octan-2-yl)-6-(2,2,2-trifluoroethyl)thieno[2,3-d]pyrimidine]
  IC50: 100 to 1000 nM

## COC(=O)N[C@H]1CC[C@@H](CN2CCC3(CCN(c4ncnc5sc(CC(F)(F)F)cc45)C3)C2)CC1 (stereo partly shown) [Example 51, Methyl ((1s,4s)-4-((7-(6-(2,2,2-trifluoroethyl)thieno[2,3-d]pyrimidin-4-yl)-2,7-diazaspiro[4.4]nonan-2-yl)methyl)cyclohexyl)carbamate]
  IC50: 100 to 1000 nM

## CC(=O)N[C@H]1CC[C@@H](CN2CCC3(CCN(c4ncnc5sc(CC(F)(F)F)cc45)C3)C2)CC1 (stereo partly shown) [Example 50, N-((1s,4s)-4-((7-(6-(2,2,2-Trifluoroethyl)thieno[2,3-d]pyrimidin-4-yl)-2,7-diazaspiro[4.4]nonan-2-yl)methyl)cyclohexyl)acetamide]
  IC50: 100 to 1000 nM

## FC(F)(F)Cc1cc2c(N3CCC4(CC3)CN(C3CCCCC3)C4)ncnc2s1 [Example 9, 4-(2-cyclohexyl-2,7-diazaspiro[3.5]nonan-7-yl)-6-(2,2,2-trifluoroethyl)thieno[2,3-d]pyrimidine]
  IC50: 100 to 1000 nM

## O=C(C1CCCNC1)N1CCC2(CCN(c3ncnc4sc(CC(F)(F)F)cc34)C2)C1 (stereo not shown) [Example 55, piperidin-3-yl(7-(6-(2,2,2-trifluoroethyl)thieno[2,3-d]pyrimidin-4-yl)-2,7-diazaspiro[4.4]nonan-2-yl)methanone]
  IC50: 100 to 1000 nM

## FC(F)(F)Cc1cc2c(N3CCC4(CC3)CN(CC3CCOC3)C4)ncnc2s1 (stereo not shown) [Example 5, 4-(2-((tetrahydrofuran-3-yl)methyl)-2,7-diazaspiro[3.5]nonan-7-yl)-6-(2,2,2-trifluoroethyl)thieno[2,3-d]pyrimidine]
  IC50: 100 to 1000 nM
